Measured values taken from patent US20070036874A1, “Compositions and methods for controlling glucose and lipid uptake from foods” (priority 2005, published 2007).

Tests used:
human pancreatic lipase = target: T1, human pancreatic lipase (Homo sapiens, UniProt P16233); test: lipase inhibition activity (USP units per mg); assay type: biochemical
T1 sequence (P16233 17-465): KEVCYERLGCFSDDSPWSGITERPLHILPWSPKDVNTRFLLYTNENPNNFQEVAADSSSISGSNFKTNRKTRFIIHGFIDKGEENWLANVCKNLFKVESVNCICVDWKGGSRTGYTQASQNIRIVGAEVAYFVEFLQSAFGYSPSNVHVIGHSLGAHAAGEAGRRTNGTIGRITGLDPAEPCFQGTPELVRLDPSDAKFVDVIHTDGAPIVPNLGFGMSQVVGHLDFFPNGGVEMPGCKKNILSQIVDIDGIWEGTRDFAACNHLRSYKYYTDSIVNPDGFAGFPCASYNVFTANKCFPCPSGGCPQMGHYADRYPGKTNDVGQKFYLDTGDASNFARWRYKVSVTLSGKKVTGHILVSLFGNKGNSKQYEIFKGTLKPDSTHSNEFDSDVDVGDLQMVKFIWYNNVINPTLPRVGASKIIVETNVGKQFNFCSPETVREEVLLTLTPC
Experimental: Polymerized catechins are prepared from fermented catechins. Tea catechins are incubated with polyphenol oxidase in a reaction tank for 60 to 120 minutes. The mixture is then extracted with ethyl acetate and dried. In particular embodiments, the extracts have at least 10 USP units human pancreatic lipase inhibition per mg.
LIPOTAME™, an exemplary polymerized catechin commercially available from NatureGen, has 11.62 USP units/mg of lipase inhibition activity, compared to 80 USP units/mg of lipase inhibition activity found in ORLISTAT®.

[1] = tested on: sodium dependent glucose transporter; settings: in vitro study; cited from earlier work

| SMILES | lipase inhibition activity (human pancreatic lipase) | inhibition of the glucose uptake through incubated intestinal membranes [1] |
| --- | --- | --- |
| CCCCCCCCCCC[C@@H](C[C@@H]1OC(=O)[C@H]1CCCCCC)OC(=O)[C@H](CC(C)C)NC=O [ORLISTAT®, Orlistat] | 80 USP units/mg | – |
| O=C(O[C@@H]1Cc2c(O)cc(O)cc2O[C@@H]1c1ccc(O)c(O)c1)c1cc(O)c(O)c(O)c1 [Epicatechin gallate] | – | up to 50% |
